Where a name gives a salt, the structure may show the parent alone. Read-outs that look alike come from different tables or passages of the source. Each block holds one compound with its values, some of them ahead of it.
What was measured:
[1] = system: hTAS1R2 and tas1r3-hN-rTM; assay: Calcium mobilization (FLIPR), chimera with human N-terminus and rat transmembrane region; format: cell-based
Source text: The receptor chimeras of Tas1r3 were constructed using recombinant PCR. In the first reactions the N-terminal and the C-terminal part containing the seven transmembrane domains of hTAS1R3 and rTas1r3 were amplified from plasmid DNA using Ultra Pfu Polymerase (Stratagene). For the hTAS1R3 and rTas1r3 N-termini the forward vector-anchored primer (CMV: […]) and a reverse gene specific primer ([…]) were used. The hTAS1R3 and rTas1r3 C-terminal part were amplified with forward gene specific primer ([…]) and a reverse vector-anchored primer ([…]). PCR conditions were: 5 min, 94°C, 24 cycles 1 min 94°C, 0.5 min 64°C, 2 min 72°C; 5 min 72°C. The amplicons were purified using the Highpure PCR Product Purification Kit (Roche) and used as template for the second PCR. To create the chimeric receptor tas1r3-hN-rTM, equimolar amounts (~50 ng) of the hTAS1R3 N-terminus and rTas1r3 transmembrane domains were combined without additional oligonucleotides. PCR conditions were: 5 min 94°C; 15 cycles of 2 min 64°C, 2 min 72°C and 0.5 min 94°C; followed by 5 min 64°C and 10 min 72°C. […] These chimeras were cloned into pcDNA5/FRT.
(§1) The cDNAs were transiently transfected into HEK293T cells stably expressing the chimeric G-protein subunit Gα16gust44 [20] using Lipofectamine 2000 (Invitrogen) according to the manufacturer's protocol. 3–4 hours after transfection, DMEM was replaced by low-glucose DMEM supplemented with GlutaMAX and 10% dialyzed FBS (Invitrogen). 22–44 hours later, cells were loaded for 1 hour with the calcium sensitive dye Fluo4-AM (2 μg/ml in DMEM, Molecular Probes). Cells were washed 3x in solution C1 (130 mM NaCl, 5 mM KCl, 10 mM Hepes, 2 mM CaCl2, and 5 mM Glucose, pH 7,4). Calcium mobilization was monitored by an automated fluorometric imaging plate reader (FLIPR, Molecular Devices). Ligands (Sigma-Aldrich, Merck) were dissolved in C1 solution. All data were collected from at least two independent experiments carried out in triplicate. The obtained calcium signals were corrected for the response of mock transfected cells and normalized to the fluorescence of cells prior to the stimulus using ΔF/F=(F-F0)/F0. […]
All sweeteners were used at concentrations which were close to the maximal obtainable signal. (c) Alignment of amino acid sequences of the human, rat, and mouse Tas1r3 transmembrane regions. Color code: white, identical; grey, conservative; dark-grey, similar; black, non-similar. TM, predicted transmembrane domain, indicated by a black bar. Dots indicate the location of the primer used to generate the chimeric rat-human Tas1r3 receptors. Asterisks denote amino acid positions that are identical in rat and mouse but variable between humans and rodents and are located in the extracellular loops or the upper part of the transmembran regions. Boxes indicate the several rTas1r3 mutants m1 – m7, including the amino acid substitutions. m6/1 – m6/3 signified the reconverted amino acid of mutant m6.

[2] = molecular target: T1, hTAS1R2-hTAS1R3 (Homo sapiens, UniProt Q7RTX0+Q8TE23); assay: Calcium mobilization (FLIPR) in transfected HEK293T-Gα16gust44 cells, human sweet receptor; conditions: asp 15 mM; cyc 30 mM; neo 0.1 mM; sac 10 mM; suc 100 mM; stev 1 mM
T1 sequence (Q8TE23 20-839): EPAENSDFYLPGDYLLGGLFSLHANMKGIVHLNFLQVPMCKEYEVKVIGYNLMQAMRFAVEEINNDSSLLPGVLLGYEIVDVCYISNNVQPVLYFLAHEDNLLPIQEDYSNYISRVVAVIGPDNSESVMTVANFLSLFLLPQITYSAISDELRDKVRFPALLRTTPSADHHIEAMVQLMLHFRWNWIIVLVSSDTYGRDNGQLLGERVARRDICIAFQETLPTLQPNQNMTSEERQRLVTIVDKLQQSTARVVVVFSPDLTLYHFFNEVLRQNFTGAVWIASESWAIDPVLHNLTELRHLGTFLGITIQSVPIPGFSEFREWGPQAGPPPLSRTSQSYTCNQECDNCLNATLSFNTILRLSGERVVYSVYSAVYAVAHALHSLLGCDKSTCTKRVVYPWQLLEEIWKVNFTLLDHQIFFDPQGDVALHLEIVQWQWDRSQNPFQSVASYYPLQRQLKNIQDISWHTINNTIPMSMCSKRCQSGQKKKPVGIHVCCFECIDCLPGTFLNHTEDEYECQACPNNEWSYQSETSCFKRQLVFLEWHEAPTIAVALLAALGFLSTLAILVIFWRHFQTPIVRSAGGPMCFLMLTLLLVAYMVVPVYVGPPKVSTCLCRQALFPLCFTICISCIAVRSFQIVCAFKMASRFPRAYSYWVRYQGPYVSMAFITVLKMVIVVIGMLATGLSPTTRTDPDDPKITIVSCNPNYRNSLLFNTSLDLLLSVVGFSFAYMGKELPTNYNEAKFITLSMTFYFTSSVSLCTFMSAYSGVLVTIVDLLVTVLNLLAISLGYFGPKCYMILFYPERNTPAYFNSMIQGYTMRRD
T1 sequence (Q7RTX0 21-852): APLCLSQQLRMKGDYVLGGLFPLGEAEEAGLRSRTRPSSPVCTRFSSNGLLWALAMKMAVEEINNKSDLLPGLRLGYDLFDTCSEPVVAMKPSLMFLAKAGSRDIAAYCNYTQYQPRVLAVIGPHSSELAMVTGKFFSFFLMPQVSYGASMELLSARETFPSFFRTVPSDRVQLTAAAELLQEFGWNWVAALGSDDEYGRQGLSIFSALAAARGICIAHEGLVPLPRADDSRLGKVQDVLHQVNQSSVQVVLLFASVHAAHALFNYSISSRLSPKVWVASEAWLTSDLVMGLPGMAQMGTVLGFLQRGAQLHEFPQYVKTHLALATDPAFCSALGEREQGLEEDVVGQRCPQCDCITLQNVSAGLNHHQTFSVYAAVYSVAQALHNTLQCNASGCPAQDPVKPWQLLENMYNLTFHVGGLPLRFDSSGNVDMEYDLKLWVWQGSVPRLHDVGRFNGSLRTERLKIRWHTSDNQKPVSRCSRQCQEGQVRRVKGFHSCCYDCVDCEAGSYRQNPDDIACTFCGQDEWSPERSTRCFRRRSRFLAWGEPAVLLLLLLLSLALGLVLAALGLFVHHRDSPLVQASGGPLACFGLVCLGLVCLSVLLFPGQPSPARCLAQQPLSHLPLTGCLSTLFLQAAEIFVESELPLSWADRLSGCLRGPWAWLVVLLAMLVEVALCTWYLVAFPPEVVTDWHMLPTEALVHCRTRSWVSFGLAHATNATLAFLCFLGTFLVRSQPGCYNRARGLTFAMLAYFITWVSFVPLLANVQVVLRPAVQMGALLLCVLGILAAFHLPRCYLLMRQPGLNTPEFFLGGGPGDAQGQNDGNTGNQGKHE

[3] = system: human TAS1R2-TAS1R3 heteromer; conditions: cited from earlier work
[4] = system: rTas1r2 and rTas1r3 mutants m1 – m7 other than m6; assay: Calcium mobilization (FLIPR), other rTas1r3 mutants (m1-m5, m7); format: cell-based, rat; conditions: stimulation with 1 mM stevioside; 1.0 mM lactisole
Source text: Receptor mutants were generated by site directed mutagenesis according to the QuikChange protocol (Stratagene). The forward and reverse complement primers contained the desired mutations and annealed to the same sequence on opposite strands of the plasmids. The following rTas1r3 receptor variants were generated: m1: S576L; m2: R632Q, S635P, S637Q; m3: M644L A645S; m4: A702T; m5: Q717H, V718M, V723A, E725V; m6: L735F, V738A, I740A. m6/1: V738A, I740A, m6/2: L735F, I740A, m6/3: L735F, V738A. m7: A793V, Y794L, Q795R. Subsequently a rTas1r3-V738A variant was generated. All constructs were checked by sequencing.
as §1, with “Cells were washed 3x in solution C1 (130 mM NaCl, 5 mM KCl, 10 mM Hepes, 2 mM CaCl2, and 5 mM Glucose, pH 7,4).” left out, “Ligands (Sigma-Aldrich, Merck) were dissolved in C1 solution. All data were collected from at least two independent experiments carried out in triplicate.” left out

[5] = system: sweet taste; design: method as in PMID 11917125, PMID 7812727, PMID 12379598, PMID 10480680; conditions: humans; cited from earlier work
[6] = system: sweet taste; design: method as in PMID 11917125, PMID 7812727, PMID 12379598, PMID 10480680; conditions: rats; cited from earlier work

activation of receptor (calcium response) ([1]; asp 15 mM, cyc 30 mM, neo 0.1 mM, sac 10 mM, suc 100 mM, stev 1 mM): responded | activation of receptor (calcium response) [2]: elevated intracellular calcium levels
Compound: O=C1NS(=O)(=O)c2ccccc21 [saccharin]

Compound: brazzein: sweet protein (QDKCKKVYENYPVSKCQLANQCNYDCKLDKHARSGECFYDEKRNLQCICDYCEY; UniProt P56552 1-54, looked up)
activation of heteromer [3]: only activate the human

Compound: thaumatin
activation of heteromer [3]: only activate the human

Compound: COc1ccc(OC(C)C(=O)O)cc1 (stereo not drawn) [lactisole, 2-(4-methoxphenoxy) propanoic acid sodium salt]
lactisole sensitivity of agonist responses ([1]; 1.0 mM lactisole, all four agonists): lactisole insensitive | lactisole sensitivity conferred to the heteromer [4]: did not | suppression of the sweet taste of various compounds [5]: suppresses the sweet taste | suppression of the sweet taste of various compounds [6]: not in rats

Compound: monellin
activation of heteromer [3]: only activate the human

— publication PMC1084349 (BMC Neuroscience, 2005)
